Reference: publication PMC11286609, “In vitro and in vivo analyses of eFAP: a novel FAP-targeting small molecule for radionuclide theranostics and other oncological interventions” (EJNMMI Radiopharmacy and Chemistry, 2024)

Columns and labels:
[1] = molecular target: T1, huFAP (Homo sapiens, UniProt Q12884); test: Recombinant enzymatic inhibition assay, huFAP (Z-Gly-Pro-AMC); format: biochemical; conditions: n = 3, picture: nM ± 95% CI
T1 sequence (Q12884 1-760): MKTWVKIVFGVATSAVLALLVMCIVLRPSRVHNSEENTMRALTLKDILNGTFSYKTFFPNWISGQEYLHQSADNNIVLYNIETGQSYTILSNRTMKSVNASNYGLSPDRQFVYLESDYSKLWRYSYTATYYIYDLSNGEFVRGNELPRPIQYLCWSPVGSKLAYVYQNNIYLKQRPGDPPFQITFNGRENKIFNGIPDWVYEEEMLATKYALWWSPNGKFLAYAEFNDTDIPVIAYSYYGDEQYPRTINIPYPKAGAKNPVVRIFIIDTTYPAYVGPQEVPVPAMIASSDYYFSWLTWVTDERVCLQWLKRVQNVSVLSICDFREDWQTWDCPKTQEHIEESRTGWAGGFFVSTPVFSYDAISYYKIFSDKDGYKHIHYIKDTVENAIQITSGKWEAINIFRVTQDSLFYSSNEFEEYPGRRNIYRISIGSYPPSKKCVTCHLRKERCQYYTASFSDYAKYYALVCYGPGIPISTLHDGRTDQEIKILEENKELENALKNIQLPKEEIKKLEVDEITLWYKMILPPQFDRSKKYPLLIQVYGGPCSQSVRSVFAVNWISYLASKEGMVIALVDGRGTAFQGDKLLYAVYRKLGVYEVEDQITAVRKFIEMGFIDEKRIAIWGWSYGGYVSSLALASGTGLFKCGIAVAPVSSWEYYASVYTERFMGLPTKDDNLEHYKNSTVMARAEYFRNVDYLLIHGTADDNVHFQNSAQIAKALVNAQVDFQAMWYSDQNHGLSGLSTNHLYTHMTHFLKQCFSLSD
Description: (§1) All enzymatic assays were performed in black 384-well plates, and enzymatic activity was measured on a microplate reader, monitoring the fluorescence at λEX 350 nm/λEM 485 nm. […] Val-boroPro (10^− 4 M) and assay buffer served as a positive and negative control, respectively. To measure inhibition of PREP, 50 µL of the reaction mixture containing 1 µM Z-Gly-Pro-AMC and 10 ng PREP (R&D Systems; Minneapolis, MN, USA) were used. The enzymatic assay of DPP4 contained substrate (100 µM), DPP4 (Abcam; Cambridge, UK) (10 nM), assay buffer, and increasing concentrations of the inhibitors (10^− 10 M to 10^− 4 M). Sitagliptin (10^− 4 M) and assay buffer were used as a positive and negative control, respectively. H-Gly-Pro-AMC (100 µM) in assay buffer was used as a baseline control. The plates were analyzed in a Hidex Sense Microplate reader (Hidex; Turku, Finland) at 37 °C under dark conditions for 1 h (huFAP), 2 h (muFAP), or 30 min (PREP, DPP4). For all assays, the components were kept on ice before plating.
(§2) All statistical analyses were performed with GraphPad Prism version 9.0 (San Diego, California USA). All IC50 values were determined using a non-linear regression Log(inhibitor) vs. response analysis with variable slope (four parameters). For the in vivo results outliers were identified by a ROUT test (Q = 1%) and excluded. Next, a two-tailed student’s t-test was performed (*p < 0.05, **p < 0.01, ***p < 0.001). All experiments were performed in triplicate and repeated at least three times.

[2] = molecular target: T2, muFAP (Mus musculus, UniProt P97321); test: Recombinant enzymatic inhibition assay, muFAP (Z-Gly-Pro-AMC); format: biochemical, murine; conditions: n = 3, picture: nM ± 95% CI
T2 sequence (P97321 1-761): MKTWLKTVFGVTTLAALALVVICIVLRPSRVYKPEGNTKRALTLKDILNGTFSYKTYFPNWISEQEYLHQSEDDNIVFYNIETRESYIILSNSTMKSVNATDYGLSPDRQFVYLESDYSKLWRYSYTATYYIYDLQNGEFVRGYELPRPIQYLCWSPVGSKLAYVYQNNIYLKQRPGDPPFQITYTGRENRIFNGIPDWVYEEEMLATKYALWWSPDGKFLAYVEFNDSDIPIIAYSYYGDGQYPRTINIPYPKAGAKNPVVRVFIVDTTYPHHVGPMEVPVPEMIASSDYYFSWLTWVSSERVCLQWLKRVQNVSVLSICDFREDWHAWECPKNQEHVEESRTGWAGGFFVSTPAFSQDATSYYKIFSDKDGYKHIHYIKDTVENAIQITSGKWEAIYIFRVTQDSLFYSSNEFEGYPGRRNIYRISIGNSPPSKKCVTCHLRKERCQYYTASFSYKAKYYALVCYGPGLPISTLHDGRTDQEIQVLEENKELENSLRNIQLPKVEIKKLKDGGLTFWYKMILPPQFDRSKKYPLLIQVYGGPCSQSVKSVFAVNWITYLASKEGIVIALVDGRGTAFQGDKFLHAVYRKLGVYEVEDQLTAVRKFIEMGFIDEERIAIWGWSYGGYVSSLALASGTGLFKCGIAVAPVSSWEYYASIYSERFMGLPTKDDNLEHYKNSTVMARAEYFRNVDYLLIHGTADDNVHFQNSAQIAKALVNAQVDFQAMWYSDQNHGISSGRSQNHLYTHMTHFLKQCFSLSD
Description: as §1, §2

[3] = molecular target: T3, prolyl oligopeptidase (PREP) (Homo sapiens, UniProt P48147); test: Enzymatic inhibition assay, PREP; format: biochemical; conditions: for IC50: recombinant PREP, n = 3, picture: nM ± 95% CI; for SI PREP/huFAP: selectivity index, IC50 PREP / IC50 huFAP
T3 construct: purchased R&D Systems
T3 sequence (P48147 1-710): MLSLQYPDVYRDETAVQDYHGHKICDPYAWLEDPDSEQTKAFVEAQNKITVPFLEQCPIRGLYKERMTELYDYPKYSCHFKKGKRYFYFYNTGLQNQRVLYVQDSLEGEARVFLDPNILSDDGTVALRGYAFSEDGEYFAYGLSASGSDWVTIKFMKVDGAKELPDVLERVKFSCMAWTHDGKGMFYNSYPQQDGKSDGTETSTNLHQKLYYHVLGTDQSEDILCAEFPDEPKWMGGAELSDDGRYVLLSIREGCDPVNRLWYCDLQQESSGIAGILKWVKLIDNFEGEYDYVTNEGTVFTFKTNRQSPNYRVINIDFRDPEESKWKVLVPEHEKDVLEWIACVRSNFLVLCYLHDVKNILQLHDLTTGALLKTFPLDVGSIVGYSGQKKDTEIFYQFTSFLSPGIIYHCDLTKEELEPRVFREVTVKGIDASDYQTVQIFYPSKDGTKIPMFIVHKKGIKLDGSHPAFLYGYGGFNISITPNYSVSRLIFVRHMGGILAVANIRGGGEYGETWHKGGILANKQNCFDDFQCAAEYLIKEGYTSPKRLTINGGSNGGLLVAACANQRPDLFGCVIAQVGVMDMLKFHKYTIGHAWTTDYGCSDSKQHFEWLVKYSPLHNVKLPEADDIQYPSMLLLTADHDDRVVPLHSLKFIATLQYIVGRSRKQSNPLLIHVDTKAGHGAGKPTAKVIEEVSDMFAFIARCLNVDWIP
Description: as §1, §2

CN(CCCN1CCN(C(=O)CN2CCN(CC(=O)O)CCN(CC(=O)O)CCN(CC(=O)O)CC2)CC1)c1ccc2nccc(C(=O)NCC(=O)N3CC(F)(F)C[C@H]3C#N)c2c1 [FAPI-46, reference compound]
IC50 [1]: 3.87 ± 2.7 nM
IC50 [2]: 1.55 ± 1.2 nM
IC50 [3]: 3480 ± 172 nM

N#C[C@@H]1CC(F)(F)CN1C(=O)CNC(=O)c1ccnc2c(OCCCNC(=O)CN3CCN(CC(=O)O)CCN(CC(=O)O)CCN(CC(=O)O)CC3)cccc12 [eFAP-6, (S)-2,2',2''-(10-(2-((3-((4-((2-(2-cyano-4,4-difluoropyrrolidin-1-yl)-2-oxoethyl)carbamoyl)quinolin-8-yl)oxy)propyl)amino)-2-oxoethyl)-1,4,7,10-tetraazacyclododecane-1,4,7-triyl)triacetic acid]
IC50 [1]: 1.16 ± 0.04 nM
IC50 [2]: 0.58 ± 0.02 nM
IC50 [3]: 161 ± 53.6 nM
SI PREP/huFAP [3]: 138.6

CN1/C(=C/C=C/C=C/C2=[N+](CCCCCC(=O)NCCCOc3cccc4c(C(=O)NCC(=O)N5CC(F)(F)C[C@H]5C#N)ccnc34)c3ccc(S(=O)(=O)[O-])cc3C2(C)C)C(C)(C)c2cc(S(=O)(=O)O)ccc21 [eFAP-7, 1-(6-((3-((4-((2-((S)-2-cyano-4,4-difluoropyrrolidin-1-yl)-2-oxoethyl)carbamoyl)quinolin-8-yl)oxy)propyl)amino)-6-oxohexyl)-3,3-dimethyl-5-sulfo-2-((1E,3E)-5-((E)-1,3,3-trimethyl-5-sulfoindolin-2-ylidene)penta-1,3-dien-1-yl)-3H-indol-1-ium]
IC50 [1]: 4.23 ± 0.5 nM
IC50 [2]: 4.56 ± 0.2 nM
IC50 [3]: 475 ± 104 nM
SI PREP/huFAP [3]: 112.3
